Test results as given in US20260132103A1, “Bumetanide Derivatives for the Therapy of Stroke and Other Neurological Diseases/Disorders Involving NKCCs” (University of Pittsburgh - Of the Commonwealth System of …, priority 2018, published 2026).

Legend:
[1] = test system: GL26 and SB28-GFP cells; assay: Rubidium uptake assay (Rb+ influx); assay type: cell-based, mouse
Method: FIGS. 4A-4B: Rb^+ influx was measured in GL26 and SB28-GFP cells in either isotonic (10 min) or hypertonic (5 min) solutions using ICR 8000 machine. (4A) Cells were exposed to isotonic or hypertonic solutions with BMT (10 μM) or STS66 (10 μM). (4B) Cells were exposed to isotonic or hypertonic solutions with different concentrations of STS66 (0 to 40 μM). Results are expressed as means±SEM from four independent experiments. **P<0.01, ***P<0.001, ****P<0.0001.
FIG. 5: GL26 cells and SB28-GFP cells were first exposed to BMT (10 μM) and different concentration of STS66 (10, 20 and 40 μM) for 48 h, and Rb^+ influx was measured in either isotonic (10 min) or hypertonic (5 min) solutions using ICR 8000 machine. Results are expressed as means±SEM from four independent experiments. *P<0.05, **P<0.01, ***P<0.001, ****P<0.0001.
GL26 and SB28-GFP cells were seeded in 24-well plates and the rubidium uptake assay was performed on cells that were 60% confluent. TMZ was added to cells for 48 hr incubation. The medium was then removed from the wells and washed with wash buffer (Rb^+ free). After wash buffer was aspirated, isotonic and hypertonic solutions (contain Rb^+) with BMT were added, and cells were incubated at 37° C. for 5 min. […] The Rb^+ concentration was measured using an automated atomic absorption spectrophotometer (Ion Channel Reader, ICR-8000; Aurora Biomed, Vancouver, Canada).

[2] = target: T1, pNKCC1 and tNKCC1 proteins (Mus musculus, UniProt P55012); assay: Immunoblotting of pNKCC1 and tNKCC1; assay type: cell-based; conditions: GL26 and SB28-GFP cells, 6 h; BMT 10 μM, STS66 10 μM, TMZ 100 μM or combined
T1 construct: cell lysates were harvested for immunoblotting of pNKCC1 and tNKCC1 proteins; endogenous in cells; host or cells: GL26 and SB28-GFP mouse glioma cells
T1 sequence (P55012 1-1205): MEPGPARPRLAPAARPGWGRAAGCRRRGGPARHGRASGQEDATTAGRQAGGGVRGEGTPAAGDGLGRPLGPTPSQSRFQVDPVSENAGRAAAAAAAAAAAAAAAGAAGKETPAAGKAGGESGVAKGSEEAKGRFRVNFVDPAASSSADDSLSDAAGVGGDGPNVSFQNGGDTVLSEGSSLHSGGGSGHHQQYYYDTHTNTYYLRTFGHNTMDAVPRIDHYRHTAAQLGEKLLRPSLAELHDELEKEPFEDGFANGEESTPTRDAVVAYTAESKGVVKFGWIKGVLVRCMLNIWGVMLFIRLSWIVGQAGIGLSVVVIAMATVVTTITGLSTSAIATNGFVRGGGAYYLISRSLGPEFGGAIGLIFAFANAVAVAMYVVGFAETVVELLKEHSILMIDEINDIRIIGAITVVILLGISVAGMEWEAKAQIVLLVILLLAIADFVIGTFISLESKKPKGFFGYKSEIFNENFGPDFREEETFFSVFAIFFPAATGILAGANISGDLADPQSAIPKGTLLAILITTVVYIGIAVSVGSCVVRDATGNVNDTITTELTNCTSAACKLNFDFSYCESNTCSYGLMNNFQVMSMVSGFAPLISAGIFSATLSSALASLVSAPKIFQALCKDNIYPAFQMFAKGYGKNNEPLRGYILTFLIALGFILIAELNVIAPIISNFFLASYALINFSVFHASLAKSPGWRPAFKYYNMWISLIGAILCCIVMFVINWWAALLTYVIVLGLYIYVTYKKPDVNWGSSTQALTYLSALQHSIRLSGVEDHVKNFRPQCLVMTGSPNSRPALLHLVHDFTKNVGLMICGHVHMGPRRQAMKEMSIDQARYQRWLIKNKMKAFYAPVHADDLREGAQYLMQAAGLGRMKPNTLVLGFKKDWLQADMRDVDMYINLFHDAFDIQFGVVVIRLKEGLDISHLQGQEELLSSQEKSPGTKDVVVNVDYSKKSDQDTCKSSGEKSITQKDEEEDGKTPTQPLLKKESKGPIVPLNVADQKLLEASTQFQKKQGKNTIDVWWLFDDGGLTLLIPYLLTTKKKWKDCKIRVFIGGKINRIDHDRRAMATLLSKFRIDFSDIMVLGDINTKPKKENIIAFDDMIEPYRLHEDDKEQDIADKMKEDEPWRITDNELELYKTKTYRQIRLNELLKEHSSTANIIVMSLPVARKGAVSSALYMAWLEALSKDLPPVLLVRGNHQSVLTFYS
Method: FIGS. 6A-6B: GL26 and SB28-GFP cells were exposed to BMT (10 μM), STS66 (10 μM), TMZ (100 μM) or combined for 6 h and cell lysates were harvested for immunoblotting of pNKCC1 and tNKCC1 proteins. Data are means±SEM from six independent experiments. *P<0.05, **P<0.01, ***P<0.001.
GL26 and SB28-GFP cells were washed with ice-cold PBS and incubated in RIPA buffer containing 1 pill of phosSTOP and 2 mM protease inhibitors as described before (Algharabli et al. 2012). Cells were lysed by sonication at 4° C. Protein content of the cellular lysate was determined with BCA Protein Assay Kit. Samples and sample buffer (Thermo Scientific, Rockford, IL, USA) were boiled at 95° C. for 5 min. The samples were then electrophoretically separated on 10% SDS gels. After transferring to PVDF membranes, the blots were blocked in 10% nonfat dry milk in TBS-T (Tris-buffered saline, 0.05% Tween-20) for 1 hour at room temperature and then incubated with appropriate primary antibodies (pNKCC1, 1:300 and tNKCC1, 1:3000) at 4° C. overnight. After rinsing with TBS-T, the blots were incubated with horseradish peroxidase-conjugated secondary IgG (1:2000) for 1 hr at RT. Bound antibody was visualized with an enhanced chemiluminescence assay. Protein band signal intensities were analyzed using ImageJ and normalized to α-tubulin expression.

CCCCNc1cc(CNCC(F)(F)F)cc(S(N)(=O)=O)c1Oc1ccccc1 [STS66, 3-(Butylamino)-2-phenoxy-5-[(2,2,2-trifluoroethylamino)methyl]benzenesulfonamide]
Rb+ influx inhibition, 48 h incubation ([1]; drugs incubated for 48 h, BMT 10 μM, STS66 10, 20 and 40 μM): inhibited the Rb^+ influx better than BMT | Rb+ influx inhibition, short incubation ([1]; drugs incubated for short time: isotonic (10 min) or hypertonic (5 min) solutions, STS66 0 to 40 μM): does not inhibit Rb^+ influx | pNKCC1 and tNKCC1 expression [2]: did not show significant decrease
